Measured values as given in US20240369539A1, “AN ADHERENT CELL CULTURE METHOD FOR GENERATING TIGHT JUNCTION BETWEEN CELLS AND ITS PRODUCT APPLICATION” (ZHEJIANG UNIVERSITY, priority 2021, published 2024).

What was measured:
[1] = system: in vitro blood-brain barrier model (membranous cell sheet formed by endothelial cells)
[2] = system: in vitro blood-brain barrier model (membranous cell sheet formed by endothelial cells); test: test of a blood-brain barrier toxic drug on the in vitro blood-brain barrier model; details: FIG. 20
Protocol: A test of a blood-brain barrier toxic drug is carried out to determine the response of the blood-brain barrier model constructed in the embodiment to the blood-brain barrier toxic drug.

| SMILES | content detected in the lower chamber [1] | barrier function of the blood-brain barrier model ([2]; after self-recovery for 24 hours following drug treatment) | barrier function of the blood-brain barrier model ([2]; after treatment with the blood-brain barrier toxic drug) |
| --- | --- | --- | --- |
| N[C@@H](Cc1ccc(O)c(O)c1)C(=O)O [L-dopamine] | significantly higher than that of the dopamine |  |  |
| CN[C@@H](C)Cc1ccccc1 [methamphetamine] |  | significantly improved | significantly reduced |
| NCCc1ccc(O)c(O)c1 [dopamine] | the content of the L-dopamine detected in the lower chamber is significantly higher than that of the dopamine |  |  |
